The values below come from patent US11974551B2, “L-serine compositions, methods and uses for treating neurodegenerative diseases and disorders” (priority 2011, dated 2024).

SMILES strings stand for the structures. Entries after “also recorded” stand apart in the source; their conditions may differ.

Holding throughout (assay type): cell-based, human
Assay [1] deals with MRC-5 cells. As to the kind of experiment: Incorporation of 3H-BMAA radiolabel into cell proteins (TCA precipitation, liquid scintillation counting). Particulars: 3H-BMAA 31.25 nM, 16 hours. The method, then:
MRC-5 cells were incubated with ^3H-BMAA (31.25 nM) in HBSS containing 10% FCS. After 2, 4, and 16 hours, cells were washed three times in phosphate buffered saline and lysed by freeze-thawing in Triton X-100. The protein concentration in the lysate was determined using the bicinchoninic acid assay (BCA) (Smith, et al., Anal Biochem 150, 76-85 (1985)) (and radiolabel in the cell lysate quantified by liquid scintillation counting (LSC). Cell proteins were then isolated by trichloroacetic acid (TCA) (5%) precipitation washed three times in TCA (5%) and dissolved in formic acid.
To determine if incorporation of radiolabel into proteins was protein synthesis dependent MRC-5, SH-SY5Y and HUVEC cells were incubated with ^3H-BMAA (31.25 nM) with or without CHX 2 μg/ml for 16 hours. The amount of radiolabel present in cell proteins in the CHM-treated cultures was expressed relative to that of control cultures, which was set at 100%. Parallel cultures of MRC-5 cells were incubated with ^3H-leucine (41 nM) with or without CHX 2 μg/ml under identical culture conditions and processed as before.
To examine the ability of individual amino acids to reduce incorporation or radiolabel into proteins, MRC-5 cells were incubated with ^3H-BMAA (31.25 nM) for 16 hours in the presence of individual amino acids (250 μM) and the radiolabel present in the cell proteins assessed as before. All of the 20 protein amino acids (L-isomers) were examined individually in triplicate cell cultures. […] Incorporation of radiolabel was determined relative to cells incubated in medium containing no serine. MRC-5 cells were then incubated with ^3H-BMAA (31.25 nM) for 16 hours in HBSS alone, HBSS containing all 20 protein amino acids (400 μM) or 19 protein amino acids except L-serine and the amount of radiolabel in cell protein assessed as before.

Assay [2] deals with MRC-5 cells. As to the kind of experiment: Autofluorescence imaging of cells. Particulars: BMAA 300 μM with L-serine 300 μM, 96 hours. The method, then:
MRC-5 cells were incubated in DMEM supplemented with 300 μM BMAA in the presence or absence of 300 μM L-serine for 96 hours with daily medium changes. Cellular autofluorescence was visualized using an inverted fluorescent microscope (Olympus IX71) as described previously (Dunlop, et al., Biochem J 410, 131-140 (2008)).

The test system of another assay is SH-SY5Y cells. As to the kind of experiment: Annexin V binding (apoptosis) by flow cytometry. Particulars: 500 μM BMAA, co-incubation with CHX 2 μg/mL or L-serine 50 μM. The procedure:
Late-stage apoptosis or necrosis was measured by simultaneous staining with propidium iodide and Annexin V using the BD Pharmingen™ Annexin V—FITC apoptosis detection kit and flow cytometry performed as described previously (Dunlop, et al., Biochem J 435, 207-216 (2010)).
A general note: A flow cytometer gives signals particle by particle.

`N[C@@H](CO)C(=O)O` [L-serine]: the “incorporation of BMAA into proteins when L-serine was omitted from the amino acid mixture” value in the assay with MRC-5 cells [1] (19 protein amino acids 400 μM without L-serine) is “significantly increased”. Besides, the “effect on incorporation of 3H-BMAA into cell proteins” value in the assay on MRC-5 cells [1] (L-serine 0, 50, 100 and 250 μM) is recorded as “inhibited in the presence of L-serine in a concentration-dependent manner; also recorded: inhibition of incorporation of radiolabel into cell proteins”. For the same compound, in the assay with MRC-5 cells [2], the “effect on BMAA-induced formation of autofluorescent bodies” value is “prevented the formation of autofluorescent bodies”. In addition, in the assay with SH-SY5Y cells, the “effect on BMAA-induced Annexin V binding / apoptosis” value was “abrogated; also recorded: significantly reduced”.
